Data taken from US20100184699A1, “Peptide Derived From Prostate-Related Protein As Cancer Vaccine Candidate For Prostate Cancer Patient Who Is Positive For Hla-A3 Super-Type Allele Molecule” (priority 2005, published 2010).
Values joined by “and” are separate entries in the source; they are usually repeats but may differ in a detail not shown here. Equal entries are not always repeated.

What was measured:
[1] = test system: peptide-specific IgG in plasma of prostate cancer patients and healthy donors; assay: Detection of peptide-specific IgG in plasma by ELISA; type: binding, human; details: for IgG reactive to peptide in plasma: 1:100-diluted plasma; for frequency of detection of peptide-reactive IgG: plasma of prostate cancer patients, compared within PSA, PAP or PSMA peptides
[2] = test system: C1R-A11, -A31 or -A33 cells pulsed with corresponding peptide; assay: Induction of peptide-specific CTLs from PBMCs (IFN-γ ELISA); type: cell-based, human
[3] = Prostate cancer patient 10, A11
[4] = Prostate cancer patient 13, A11
[5] = Prostate cancer patient 14, A33
[6] = Prostate cancer patient 19, A33
[7] = Prostate cancer patient 20, A33

Sequence | IgG reactive to peptide in plasma ([1]; Healthy donor 4, A31) | IgG reactive to peptide in plasma ([1]; Healthy donor 9, A11) | IgG reactive to peptide in plasma, Total (positive/tested) ([1]; Healthy donors) | IgG reactive to peptide in plasma ([1]; Prostate cancer patient 4, A31) | IgG reactive to peptide in plasma ([1]; Prostate cancer patient 9, A11) | IgG reactive to peptide in plasma [1, 3] | IgG reactive to peptide in plasma [1, 4] | IgG reactive to peptide in plasma [1, 5] | IgG reactive to peptide in plasma, Total (positive/tested) ([1]; Prostate cancer patients) | frequency of detection of peptide-reactive IgG [1] | Total (positive / tested) [2] | IgG reactive to peptide in plasma [1, 7] | further results
LYDMSLLKNR (PSA 100-109) [PSA-derived peptide] | + (IgG reactive to a corresponding peptide was judged to be positive when a difference of the optical density (OD) in a 1:100-diluted plasma was more than 100) | + (IgG reactive to a corresponding peptide was judged to be positive when a difference of the optical density (OD) in a 1:100-diluted plasma was more than 100) | 4/9 | + (IgG reactive to a corresponding peptide was judged to be positive when a difference of the optical density (OD) in a 1:100-diluted plasma was more than 100) | + (IgG reactive to a corresponding peptide was judged to be positive when a difference of the optical density (OD) in a 1:100-diluted plasma was more than 100) | + (IgG reactive to a corresponding peptide was judged to be positive when a difference of the optical density (OD) in a 1:100-diluted plasma was more than 100) | + (IgG reactive to a corresponding peptide was judged to be positive when a difference of the optical density (OD) in a 1:100-diluted plasma was more than 100) | + (IgG reactive to a corresponding peptide was judged to be positive when a difference of the optical density (OD) in a 1:100-diluted plasma was more than 100) | 7/20 | more frequently | 1/13 and 3/9 | – | IgG reactive to peptide in plasma ([1]; Healthy donor 2, A3): + (IgG reactive to a corresponding peptide was judged to be positive when a difference of the optical density (OD) in a 1:100-diluted plasma was more than 100); IgG reactive to peptide in plasma ([1]; Healthy donor 3, A31): + (IgG reactive to a corresponding peptide was judged to be positive when a difference of the optical density (OD) in a 1:100-diluted plasma was more than 100); IgG reactive to peptide in plasma ([1]; Prostate cancer patient 7, A11): + (IgG reactive to a corresponding peptide was judged to be positive when a difference of the optical density (OD) in a 1:100-diluted plasma was more than 100); IgG reactive to peptide in plasma [1, 6]: + (IgG reactive to a corresponding peptide was judged to be positive when a difference of the optical density (OD) in a 1:100-diluted plasma was more than 100)
TLKSEEFQKR [PAP 171-180] | – | – | 0/9 | – | + (IgG reactive to a corresponding peptide was judged to be positive when a difference of the optical density (OD) in a 1:100-diluted plasma was more than 100) | + (IgG reactive to a corresponding peptide was judged to be positive when a difference of the optical density (OD) in a 1:100-diluted plasma was more than 100) | + (IgG reactive to a corresponding peptide was judged to be positive when a difference of the optical density (OD) in a 1:100-diluted plasma was more than 100) | + (IgG reactive to a corresponding peptide was judged to be positive when a difference of the optical density (OD) in a 1:100-diluted plasma was more than 100) | 4/20 | more frequently | 0/13 and 8/9 | – | –
KIVIARYGK (PSMA 199-207) [PSMA-derived peptide] | – | – | 0/9 | – | – | – | – | – | 1/20 | less frequently | 0/13 and 4/9 | + (IgG reactive to a corresponding peptide was judged to be positive when a difference of the optical density (OD) in a 1:100-diluted plasma was more than 100) | –
VLTAAHCIR [PSA 60-68] | + (IgG reactive to a corresponding peptide was judged to be positive when a difference of the optical density (OD) in a 1:100-diluted plasma was more than 100) | – | 1/9 | + (IgG reactive to a corresponding peptide was judged to be positive when a difference of the optical density (OD) in a 1:100-diluted plasma was more than 100) | – | + (IgG reactive to a corresponding peptide was judged to be positive when a difference of the optical density (OD) in a 1:100-diluted plasma was more than 100) | – | – | 3/20 | more frequently | 1/13 and 3/9 | – | IgG reactive to peptide in plasma ([1]; Prostate cancer patient 16, A33): + (IgG reactive to a corresponding peptide was judged to be positive when a difference of the optical density (OD) in a 1:100-diluted plasma was more than 100)
TLVFRHGDR [PAP 39-47] | – | + (IgG reactive to a corresponding peptide was judged to be positive when a difference of the optical density (OD) in a 1:100-diluted plasma was more than 100) | 2/9 | + (IgG reactive to a corresponding peptide was judged to be positive when a difference of the optical density (OD) in a 1:100-diluted plasma was more than 100) | + (IgG reactive to a corresponding peptide was judged to be positive when a difference of the optical density (OD) in a 1:100-diluted plasma was more than 100) | + (IgG reactive to a corresponding peptide was judged to be positive when a difference of the optical density (OD) in a 1:100-diluted plasma was more than 100) | – | + (IgG reactive to a corresponding peptide was judged to be positive when a difference of the optical density (OD) in a 1:100-diluted plasma was more than 100) | 5/20 | more frequently | 3/13 and 7/9 | + (IgG reactive to a corresponding peptide was judged to be positive when a difference of the optical density (OD) in a 1:100-diluted plasma was more than 100) | IgG reactive to peptide in plasma ([1]; Healthy donor 3, A31): + (IgG reactive to a corresponding peptide was judged to be positive when a difference of the optical density (OD) in a 1:100-diluted plasma was more than 100)
LFLLFFWLDR (PAP 19-28) [PAP-derived peptide] | – | – | – | – | – | – | – | – | – | less frequently | 1/13 and 2/9 | – | –
EIASKFSER [PSMA 641-649] | – | + (IgG reactive to a corresponding peptide was judged to be positive when a difference of the optical density (OD) in a 1:100-diluted plasma was more than 100) | 1/9 | + (IgG reactive to a corresponding peptide was judged to be positive when a difference of the optical density (OD) in a 1:100-diluted plasma was more than 100) | + (IgG reactive to a corresponding peptide was judged to be positive when a difference of the optical density (OD) in a 1:100-diluted plasma was more than 100) | + (IgG reactive to a corresponding peptide was judged to be positive when a difference of the optical density (OD) in a 1:100-diluted plasma was more than 100) | + (IgG reactive to a corresponding peptide was judged to be positive when a difference of the optical density (OD) in a 1:100-diluted plasma was more than 100) | + (IgG reactive to a corresponding peptide was judged to be positive when a difference of the optical density (OD) in a 1:100-diluted plasma was more than 100) | 13/20 | more frequently | 1/13 and 2/9 | + (IgG reactive to a corresponding peptide was judged to be positive when a difference of the optical density (OD) in a 1:100-diluted plasma was more than 100) | IgG reactive to peptide in plasma ([1]; Prostate cancer patient 5, A31): + (IgG reactive to a corresponding peptide was judged to be positive when a difference of the optical density (OD) in a 1:100-diluted plasma was more than 100); IgG reactive to peptide in plasma ([1]; Prostate cancer patient 6, A31): + (IgG reactive to a corresponding peptide was judged to be positive when a difference of the optical density (OD) in a 1:100-diluted plasma was more than 100); IgG reactive to peptide in plasma ([1]; Prostate cancer patient 8, A11): + (IgG reactive to a corresponding peptide was judged to be positive when a difference of the optical density (OD) in a 1:100-diluted plasma was more than 100); IgG reactive to peptide in plasma ([1]; Prostate cancer patient 12, A11): + (IgG reactive to a corresponding peptide was judged to be positive when a difference of the optical density (OD) in a 1:100-diluted plasma was more than 100); IgG reactive to peptide in plasma ([1]; Prostate cancer patient 17, A33): + (IgG reactive to a corresponding peptide was judged to be positive when a difference of the optical density (OD) in a 1:100-diluted plasma was more than 100); IgG reactive to peptide in plasma ([1]; Prostate cancer patient 18, A33): + (IgG reactive to a corresponding peptide was judged to be positive when a difference of the optical density (OD) in a 1:100-diluted plasma was more than 100); IgG reactive to peptide in plasma [1, 6]: + (IgG reactive to a corresponding peptide was judged to be positive when a difference of the optical density (OD) in a 1:100-diluted plasma was more than 100)
QPWQVLVASR (PSA 36-45) [PSA-derived peptide] | + (IgG reactive to a corresponding peptide was judged to be positive when a difference of the optical density (OD) in a 1:100-diluted plasma was more than 100) | – | 2/8 | – | – | – | – | – | 0/20 | less frequently | 1/13 and 1/9 | – | IgG reactive to peptide in plasma ([1]; Healthy donor 12, A31): + (IgG reactive to a corresponding peptide was judged to be positive when a difference of the optical density (OD) in a 1:100-diluted plasma was more than 100)
